Data published in ChEMBL document CHEMBL4177750, “Imidazopyrazinones (IPYs): Non-Quinolone Bacterial Topoisomerase Inhibitors Showing Partial Cross-Resistance with Quinolones” (J Med Chem, 2018).
In brackets after ≈: the same amount, converted by molar mass. Activity calls are given as the source filed them. No cut-off for these calls is given here.

Columns and labels:
Escherichia coli [1] = experiment: Antibacterial activity against ESBL producing Escherichia coli ATCC 35218 after 20 to 22 hrs; assay type: functional
Escherichia coli [2] = experiment: Antibacterial activity against Escherichia coli K-12 MG1655 after 20 to 22 hrs; details: K-12 substr. MG1655
Escherichia coli [3] = experiment: Antibacterial activity against tolC-deficient Escherichia coli K-12 MG1655 after 20 to 22 hrs; assay type: functional; details: K-12 substr. MG1655
Escherichia coli [4] = experiment: Antibacterial activity against hyperpermeable Escherichia coli D22 harboring LpxC mutant after 20 to 22 hrs
Pseudomonas aeruginosa [5] = experiment: Antibacterial activity against Pseudomonas aeruginosa PAO1 after 20 to 22 hrs; assay type: functional
Pseudomonas aeruginosa [6] = experiment: Antibacterial activity against Pseudomonas aeruginosa PAO750 harboring mexAB-oprM/mexCD-oprJ/mexEF-oprN/mexXY/opmH/mexJK/pscC deletion mutant after 20 to 22 hrs; assay type: functional
Staphylococcus aureus [7] = experiment: Antibacterial activity against methicillin-resistant Staphylococcus aureus ATCC 33592 after 20 to 22 hrs; assay type: functional
Escherichia coli [8] = experiment: Antibacterial activity against tolC-deficient fluoroquinolones-sensitive Escherichia coli JC7623 clinical isolate harboring wild type DNA gyrase after 20 to 22 hrs
Escherichia coli [9] = experiment: Antibacterial activity against tolC-deficient fluoroquinolones-resistant Escherichia coli W4753 clinical isolate harboring DNA gyrase S83L/D87N/ParC S80I/ParE S458A mutant after 20 to 22 hrs
DNA gyrase = DNA gyrase (Escherichia coli, UniProt P0AES4+P0AES6)
Description: Inhibition of Escherichia coli DNA gyrase A2B2 using relaxed pNO1 as substrate

Staphylococcus aureus [10] = experiment: Antibacterial activity against wild type Staphylococcus aureus RN4220 after 20 to 22 hrs; assay type: functional
Staphylococcus aureus [11] = experiment: Antibacterial activity against Staphylococcus aureus RN4220 harboring GyrA D83N mutant after 20 to 22 hrs; assay type: functional
Staphylococcus aureus [12] = experiment: Antibacterial activity against Staphylococcus aureus RN4220 harboring GyrA D83N/ParC D79N double mutant after 20 to 22 hrs; assay type: functional
Staphylococcus aureus [13] = experiment: Antibacterial activity against Staphylococcus aureus RN4220 harboring GyrB D437N mutant after 20 to 22 hrs; assay type: functional
Staphylococcus aureus [14] = experiment: Antibacterial activity against Staphylococcus aureus RN4220 harboring ParC S80F mutant after 20 to 22 hrs; assay type: functional
Staphylococcus aureus [15] = experiment: Antibacterial activity against Staphylococcus aureus RN4220 harboring ParC S80F/GyrA S84L double mutant after 20 to 22 hrs; assay type: functional
Klebsiella pneumoniae [16] = experiment: Antibacterial activity against wild type Klebsiella pneumoniae 1161486 after 20 to 22 hrs; assay type: functional
Klebsiella pneumoniae [17] = experiment: Antibacterial activity against Klebsiella pneumoniae 1161486 harboring GyrA S83I mutant after 20 to 22 hrs; assay type: functional
Klebsiella pneumoniae [18] = experiment: Antibacterial activity against Klebsiella pneumoniae 1161486 harboring GyrA S83I/ParC S80I double mutant after 20 to 22 hrs; assay type: functional
Klebsiella pneumoniae [19] = experiment: Antibacterial activity against Klebsiella pneumoniae 1161486 harboring GyrA S83F/D87V/ParC S80I triple mutant after 20 to 22 hrs; assay type: functional
Staphylococcus aureus [20] = experiment: Antibacterial activity against methicillin-resistant Staphylococcus aureus ATCC 33592 after 20 to 22 hrs in presence of 50% calf fetal serum; assay type: functional, organism-based
Staphylococcus aureus [21] = experiment: Antibacterial activity against methicillin-resistant Staphylococcus aureus ATCC 33592 after 20 to 22 hrs in presence of 50% mouse serum; assay type: functional, organism-based

| Structure (SMILES) | MIC (Escherichia coli [1]) | MIC (Escherichia coli [2]) | MIC (Escherichia coli [3]) | MIC (Escherichia coli [4]) | MIC (Pseudomonas aeruginosa [5]) | MIC (Pseudomonas aeruginosa [6]) | MIC (Staphylococcus aureus [7]) | MIC (Escherichia coli [8]) | MIC (Escherichia coli [9]) | other results |
| --- | --- | --- | --- | --- | --- | --- | --- | --- | --- | --- |
| O=c1c2ncnn2c2cc(F)c(-c3ccncc3)cc2n1C1CC1 | 32 µg/mL (≈ 99.6 µM) | > 64 µg/mL | < 0.125 µg/mL | 32 µg/mL (≈ 99.6 µM) | > 64 µg/mL | 32 µg/mL (≈ 99.6 µM) | 16 µg/mL (≈ 49.8 µM) | – | – | – |
| Cn1cc(-c2ccc(NC(=O)Cc3ccc(Cl)cc3)cc2)n2ccnc2c1=O | > 32 µg/mL | > 32 µg/mL | 1 µg/mL (≈ 2.55 µM) | 32 µg/mL (≈ 81.5 µM) | > 32 µg/mL | > 32 µg/mL | > 32 µg/mL | 0.125 µg/mL (≈ 0.318 µM) | 4 µg/mL (≈ 10.2 µM) | IC50 (DNA gyrase): 6.35 µM |
| Cn1c(=O)c2nccn2c2/c(=C/c3ccncc3)c3ccccc3c21 | > 64 µg/mL | > 64 µg/mL | < 0.125 µg/mL | > 64 µg/mL | > 64 µg/mL | > 64 µg/mL | > 64 µg/mL | 0.016 µg/mL (≈ 0.049 µM) | 0.25 µg/mL (≈ 0.766 µM) | – |
| O=C(O)c1cn(C2CC2)c2cc(N3CCNCC3)c(F)cc2c1=O [CIPROFLOXACIN] | < 0.125 µg/mL | – | < 0.125 µg/mL | < 0.125 µg/mL | – | < 0.125 µg/mL | – | – | – | MIC (Staphylococcus aureus [10]): 0.25 µg/mL (≈ 0.754 µM); MIC (Staphylococcus aureus [11]): 0.25 µg/mL (≈ 0.754 µM); MIC (Staphylococcus aureus [12]): 1 µg/mL (≈ 3.02 µM); MIC (Staphylococcus aureus [13]): 0.25 µg/mL (≈ 0.754 µM); MIC (Staphylococcus aureus [14]): 1 to 2 µg/mL (≈ 3.02 to 6.04 µM); MIC (Staphylococcus aureus [15]): 64 µg/mL (≈ 193 µM); MIC (Klebsiella pneumoniae [16]): < 0.063 µg/mL; MIC (Klebsiella pneumoniae [17]): 1 µg/mL (≈ 3.02 µM); MIC (Klebsiella pneumoniae [18]): 8 µg/mL (≈ 24.1 µM); MIC (Klebsiella pneumoniae [19]): 8 µg/mL (≈ 24.1 µM) |
| N[C@H]1CCN(c2cc3c(cc2F)c(=O)n(N)c(=O)n3C2CC2)C1 | 1 µg/mL (≈ 3.13 µM) | 1 µg/mL (≈ 3.13 µM) | < 0.125 µg/mL | 0.5 µg/mL (≈ 1.57 µM) | 32 µg/mL (≈ 100 µM) | < 0.125 µg/mL | 2 µg/mL (≈ 6.26 µM) | – | – | – |
| N[C@H]1CCN(c2cc3c(cc2F)n2cncc2c(=O)n3C2CC2)C1 | 16 µg/mL (≈ 48.9 µM) | 32 µg/mL (≈ 97.8 µM) | 1 µg/mL (≈ 3.05 µM) | 16 µg/mL (≈ 48.9 µM) | > 64 µg/mL | 1 µg/mL (≈ 3.05 µM) | 16 µg/mL (≈ 48.9 µM) | – | – | Activity (Staphylococcus aureus [20]): Active; Activity (Staphylococcus aureus [21]): Active |
